Measured values from patent publication US20140057895A1, “INDAZOLE- AND PYRROLOPYRIDINE-DERIVATIVE AND PHARMACEUTICAL USE THEREOF” (priority 2011, published 2014).
Several values for one entry are separate records, joined by “and”; a condition that tells them apart may be missing. Identical values can stand only once. Counter-ions that a name gives are not always drawn. Marks after values point to notes of the source that are not given here.

Legend:
[1] = tested on: scopolamine-induced cognitive impairment; experiment: Example 5: Y-maze test, scopolamine-induced cognitive impairment, single-agent administration (Table 101); assay type: in vivo, ddY mouse; settings: p.o., scopolamine-treated, # = P<0.05 vs scopolamine group
Text: (§1) Thus, scopolamine-induced cognitive impairment model, one of the AD-like model, has been used to predict pharmacodynamic signals of putative procognitive compounds, utilizing the acetylcholinesterase inhibitor donepezil for illustration (See, Citations 1 and 2). The present inventors investigated the effect of each compound on reversal of scopolamine-induced deficits in performance of Y-maze test in mice, and they also investigated adjunctive effect of compounds with donepezil on reversal of deficits induced by scopolamine and MK801 in mice.
(§2) Used animal: ddY mouse (SLC)
(§3) In the experiments, the mice were grouped in the same way using Stat Preclinica (Version 1.03295; Takumi Information Technology Inc.). The selected mice were divided into 5 to 7 groups of 7 to 12 mice using the “completely randomization design by the single variable” program (Analytical program version 1.0.7), with body weight on the testing day. After grouping, p values for Bartlett's test and ANOVA across all groups were greater than 0.2, indicating no significant difference in this parameter among the groups.
The required amount of each compound was weighed and put into a glass homogenizer. […]
(§4) The required amount of scopolamine and MK801 were weighed, and saline was added to it to give 0.3 mg/mL and 0.015 mg/mL solution, respectively.
(§5) 90 Min before the test, the mice were orally administered each compound, donepezil, and vehicle (0.5% methyl cellulose, 10 mL/kg). After 60 min, memory impairment was induced by administering scopolamine (0.6 mg/kg, s.c.) with (co-administration) or without (mono-administration) MK801 (0.03 mg/kg, s.c.). The control group received saline (2 mL/kg, s.c.) rather than scopolamine and MK801.
(§6) The Y-maze used herein is a three-arm maze with equal angles between all arms. The mazefloor and walls were constructed from black acrylic resin. The mice were initially placed within one arm, and the sequence and number of arm entries were recorded manually for each mouse over an 8-min period.
(§7) Data were processed and analyzed with Microsoft® Office Excel 2003. The alternation behavior was defined as entries into all three arms on consecutive occasions. The percent alternation behavior in each animal was calculated using the following formula, and rounded to one decimal place.
(§8) Alternation behavior(%)=[actual alternation/(total arm entries−2)]×100
(§9) Restoration ratio of alternation behavior (%) in each animal was calculated using the following formula, and rounded to one decimal place.
(§10) Restoration ratio of alternation behavior in each animal (%)=y Alternation behavior in each animal (%)=x Mean of alternation behavior in vehicle-treated group (group No. 1) (%)=A Mean of alternation behavior in scopolamine-treated group (group No. 2) (%)=B
(§11) Data were expressed as the mean of the percent alternation behavior, the number of total arm entries and the restoration ratio of alternation behavior.
(§12) Values of Y-maze tests are expressed as mean of alternation behavior (n=7−12).
(§13) Alternation behaviors in the scopolamine-treated groups were compared to those in the control groups using Wilcoxon rank sum test (Stat preclinical; Version 1.03295; Takumi Information Technology Inc.) with a two-sided significance level of 0.05.
(§14) Restoration of alternation behavior was analyzed using Stat Preclinica. Alternation behaviors in the vehicle-treated group were compared to those in the test substance-treated groups using non-parametric Dunnett multiple comparison test (Analytical program version 1.0.2) with a two-sided significance level of 0.05.

[2] = tested on: scopolamine and MK801-induced cognitive impairment; experiment: Example 5: Y-maze test, scopolamine and MK801-induced deficits, co-administration with donepezil (Table 102); assay type: in vivo, ddY mouse; settings: Donepezil 10 mg/kg, p.o. alone
Text: as §1, §2, §3
The required amount of each compound was weighed and put into a glass homogenizer. The required amount of 0.5% MC (methyl cellulose) solution was added, and each compound was suspended to give a 10 mg/kg dosing suspension.
The required amount of donepezil was weighed and put into a glass homogenizer. The required amount of 0.5% MC solution was added, and donepezil was suspended to give a suspension at concentration of 1 mg/mL (10 mg/kg dosing suspension).
as §4, §5, §6, §7, §8, §9, §10, §11, §12, §13
as §14, with “the Donepezil (10 mg/kg, p.o.)-treated” for “the vehicle-treated”, “the co-administrated groups of” for “the”, “test compounds with donepezil (10 mg/kg, p.o.)” for “test substance-treated groups”

5-HT4 receptor = molecular target: T1, 5-HT4 receptor (Cavia porcellus, UniProt O70528); experiment: Test Example 1: Serotonin 4 (5-HT4) receptor binding assay, [3H]-GR113808, guinea pig striatum membranes (Table 96); settings: Guinea pig 5-HT4 receptor binding assay, [3H]-GR113808, striatum membranes; mean value of each group
T1 construct: striatum was isolated which was cryopreserved at −80° C. until use; from tissue; host or cells: guinea pig (Slc-Hartley) striatum membranes
T1 sequence (O70528 whole entry): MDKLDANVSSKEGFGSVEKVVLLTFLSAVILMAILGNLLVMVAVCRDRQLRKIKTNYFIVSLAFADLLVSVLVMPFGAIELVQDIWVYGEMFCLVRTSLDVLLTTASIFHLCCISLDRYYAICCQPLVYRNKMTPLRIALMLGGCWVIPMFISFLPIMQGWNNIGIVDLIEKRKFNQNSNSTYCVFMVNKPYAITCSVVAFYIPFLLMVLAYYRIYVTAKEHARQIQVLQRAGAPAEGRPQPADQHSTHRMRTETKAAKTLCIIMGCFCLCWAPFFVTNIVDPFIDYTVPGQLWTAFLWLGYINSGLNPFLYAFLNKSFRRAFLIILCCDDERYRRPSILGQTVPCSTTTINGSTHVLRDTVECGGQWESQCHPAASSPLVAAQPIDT
Experimental: The 5-HT4 receptor binding assay and preparations of receptor membrane preparations herein were carried out according to a method of Grossman et al. [see, British J. Pharmacol., (1993) 109, 618].
Slc-Hartley guinea pigs (body weight 300 g to 400 g) were decapitated to remove brain rapidly, and striatum was isolated which was cryopreserved at −80° C. until use. To the obtained tissues were added fifteen fold of Hepes buffer (50 mM, pH 7.4, 4° C.), and the mixture was homogenized by Teflon (trademark) homogenizer and centrifuged at 48,000×g (4° C.) for 15 minutes. To the resulting precipitate was added Hepes buffer (1 ml) to 30 mg by wet weight of tissues, and the mixture was suspended to give receptor membrane preparations.
To an assay tube were added 0.1 nM [^3H]-GR113808 {chemical name: [1-[2-(methylsulfonylamino)ethyl]-4-piperidinyl]methyl 1-methylindole-3-carboxylate}, receptor membrane preparations, and Hepes buffer (50 mM, pH 7.4, 4° C., 1 ml) containing test compounds or 30 μM serotonin; and the mixture was incubated at 37° C. for 30 minutes. On quenching the reaction, the mixture was rapidly filtered on whatman GF/B filter, which was presoaked in 0.1% polyethyleneimine for 1 hour, by using Brandel cell Harvester, and washed with ice-cooled 50 mM Tris-HCl (pH 7.7, 4 ml) three times. To the filter after filtration was added a liquid scintillator (Ecoscint), and then a radioactivity was determined by a liquid scintillation counter.
50% Inhibition concentrations (IC50) were determined from inhibition rates of test compounds to specific bindings which were obtained by subtracting nonspecific bindings from total binding amounts of [^3H]-GR113808.
(§15) In the following table, the compounds used in the test are shown in numbers which correspond to the Example numbers above where the preparations of the compounds are described.

human 5-HT4b receptor = molecular target: T2, human 5-HT4b receptor (Homo sapiens, UniProt Q13639); experiment: Test Example 2: Serotonin 4 (5-HT4) receptor agonist activity assay, cAMP HTRF in CHO cells (Table 97); assay type: cell-based; settings: cAMP in CHO cells expressing human 5-HT4b receptor, mean value; for Emax: 0.25 h, intrinsic activity, maximal activity of 5-HT defined as 100%, read-out: IA (%); for EC50: concentration showing 50% of IA
T2 construct: expressed in transfected cells; host or cells: CHO cells (G418 selection)
T2 sequence (Q13639 whole entry): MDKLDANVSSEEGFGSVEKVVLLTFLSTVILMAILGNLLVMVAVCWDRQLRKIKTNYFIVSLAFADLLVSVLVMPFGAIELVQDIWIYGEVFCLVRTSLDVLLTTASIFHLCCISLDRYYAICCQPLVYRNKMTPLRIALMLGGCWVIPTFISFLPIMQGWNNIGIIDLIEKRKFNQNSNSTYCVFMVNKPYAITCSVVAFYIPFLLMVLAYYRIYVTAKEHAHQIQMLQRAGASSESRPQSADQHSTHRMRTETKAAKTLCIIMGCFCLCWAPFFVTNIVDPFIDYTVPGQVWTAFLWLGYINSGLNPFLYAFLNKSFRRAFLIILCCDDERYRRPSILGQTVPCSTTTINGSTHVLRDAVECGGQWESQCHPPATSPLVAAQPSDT
Experimental: The cAMP measurement test used herein was carried out by using CISBIO HTRF (trademark) cAMP Hirange kit according to the manufacturer's instructions attached therewith.
CHO cells expressing human 5-HT4b receptor were incubated in Medium 1 [DMEM/1% NEAA, 1% penicillin/streptomycin (P/S), 0.2 mg/mL GENETICIN (G418), 10% FBS] at 37° C. under 5% CO2 condition. Then, the cells were put into Medium 2 (DMEM/10000 cut FBS, G-418, P/S, NEAA) for 1 to 2 hours, and collected by treating with trypsin containing EDTA. The collected cells were suspended in Assay Buffer 1 [100 mM Hanks/HEPES buffer (pH 7.4)], the suspended cells were mixed with the testing compound on 384-well plates, and the cells were incubated at 31° C. for 15 minutes. To the cells were added cAMP-cryptate solution and cAMP-d2 solution, and they were incubated at room temperature for 1 hour. Then, time-resolved fluorescence was measured by En Vision (excitation wavelength: 330 nm, fluorescence wavelength: 620/665 nm). An intrinsic activity of the compound [IA (%)] and a concentration showing 50% of IA [EC50 (nM)] were calculated from the obtained results. In particular, the intrinsic activity (IA) was calculated on the basis of the maximal activity of 5-HT (measured from 10^−11 M to 10^−7 M) defined as 100%.
as §15

[3] = animal experiment using rats; cited from earlier work
[4] = phase II clinical trial with AD patients; cited from earlier work

| Structure (SMILES) | Alternation behavior (%) ([1]; compound 3 mg/kg) | Alternation behavior (%) ([1]; compound 10 mg/kg) | IC50 (5-HT4 receptor) [nM] | Emax (human 5-HT4b receptor) [%] | EC50 (human 5-HT4b receptor) [nM] | also measured |
| --- | --- | --- | --- | --- | --- | --- |
| CCc1nn(-c2noc(C3CCN(C[C@H]4CCN(C(C)=O)C4)CC3)n2)c2cc(F)ccc12.Cl [Example 205, 1-[(3R)-3-({4-[3-(3-ethyl-6-fluoro-1H-indazol-1-yl)-1,2,4-oxadiazol-5-yl]piperidin-1-yl}methyl)pyrrolidin-1-yl]ethanone hydrochloride] | 54.8 | 66.7^# % | – | – | – | Alternation behavior (%) ([1]; compound 1 mg/kg): 66.9^# % |
| CCc1nn(-c2noc(C3CCN(CC4CN(C(=O)OC)C4)CC3)n2)c2c(F)cccc12 [Example 218, methyl 3-({4-[3-(3-ethyl-7-fluoro-1H-indazol-1-yl)-1,2,4-oxadiazol-5-yl]piperidin-1-yl}methyl)azetidine-1-carboxylate] | 53 | 61.3% | – | – | – | Alternation behavior (%) ([1]; compound 1 mg/kg): 59.9% |
| COc1cc2c(cc1OC)C(=O)C(CC1CCN(Cc3ccccc3)CC1)C2 (stereo not drawn) [Donepezil, donepezil, reference compound] | – | – | – | – | – | Alternation behavior (%) [2]: 51.5^# % and 49.9^# % |
| CCc1nn(-c2noc(C3CCN(CCC4CCOCC4)CC3)n2)c2cc(F)ccc12 [Example 137, 3-ethyl-6-fluoro-1-(5-{1-[2-(tetrahydro-2H-pyran-4-yl)ethyl]piperidin-4-yl}-1,2,4-oxadiazol-3-yl)-1H-indazole] | 49.3 | 62.6^# % | < 20 | 66 | 8.6 | – |
| CC(C)n1c(=O)c(C(=O)NCCCN2CCCCC2)c(O)c2ccsc21 [PRX-03140] | – | – | – | – | – | improving cognitive function [3]: efficacious for improving cognitive function; lowering Aβ [3]: lowering Aβ; effect for improving cognitive function [4]: shows the effect for improving cognitive function |
| CCc1nn(-c2noc(C3CCN(C4CCN(C(=O)OC)CC4)CC3)n2)c2cc(F)ccc12 [Example 230, methyl 4-[3-(3-ethyl-6-fluoro-1H-indazol-1-yl)-1,2,4-oxadiazol-5-yl]-1,4′-bipiperidine-1′-carboxylate] | – | – | 25.1 | 65 | 17.9 | – |
| CCc1nn(-c2noc(C3CCN(C[C@@H]4CCCN4C(=O)OC)CC3)n2)c2ccccc12 [Example 178, methyl (2S)-2-({4-[3-(3-ethyl-1H-indazol-1-yl)-1,2,4-oxadiazol-5-yl]piperidin-1-yl}methyl)pyrrolidine-1-carboxylate] | – | – | < 20 | 38 | 10.9 | – |
| CC(C)CN1CCC(c2nc(-n3nc(C(C)C)c4ccccc43)no2)CC1 [Example 98, 1-{5-[1-(2-methylpropyl)piperidin-4-yl]-1,2,4-oxadiazol-3-yl}-3-(propan-2-yl)-1H-indazole trifluoroacetate] | – | – | 32.1 | 110 | 15.5 | – |
